Here are results for eleven compounds from patent publication US20240018121A1, “NOVEL HETEROAROMATIC COMPOUNDS EXHIBITING ANTIFUNGAL ACTIVITY AND THEIR METHOD OF USE” (FOX CHASE CHEMCIAL DIVERSITY CENTER, INC., priority 2020, published 2024).

What all share (type): cell-based
For experiment [1], the system named is Aspergillus flavus AFL1 (ATCC MYA-3631). In words: Fungal MIC Protocol, Aspergillus flavus. The settings on record: for MIC: Aspergillus flavus, read-out: MIC Aspergillus flavus 3631. Summed up:
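The MIC against Aspergillus flavus was measured by broth microdilution in RPMI/MOPS medium at pH 7.0. Compounds were diluted to 200 ug/mL from DMSO stocks, then ten serial dilutions were tested in duplicate in round bottom 96-well plates. Spores adjusted to a final OD530 of 0.002 were added, with no-cell and no-compound control wells, and plates were incubated 48 hours at 35° C.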

Experiment [2] deals with Aspergillus fumigatus T33439 (ATCC MYA-3626). The experiment in a line: Fungal MIC Protocol, Aspergillus fumigatus. The settings on record: for MIC: Aspergillus fumigatus, read-out: MIC Aspergillus fumigatus 3626. Summed up: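 This broth microdilution MIC test used RPMI/MOPS medium at pH 7.0 with glucose. Compounds were diluted from DMSO stock to 200 ug/mL and serially diluted ten times in 96-well round bottom plates. Equal volumes of compound and Aspergillus spore suspension at OD530 0.002 were combined, with controls of compound without cells and spores without compound. Plates were bagged and incubated at 35° C. for 48 hours.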

Experiment [3] deals with Candida albicans GDH2346. In words: Candida Minimal Inhibitory Concentration (MIC). As to conditions: for MIC50: Candida albicans, read-out: MIC-50 Candida albicans GDH2346. Summed up:
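Twofold serial dilutions from 200 μg/mL in RPMI 1640/MOPS with glucose, pH 7.0, tested in duplicate against yeast from an OD600 1.0 suspension diluted 1:1000. Incubated at 35° C; OD600 read at 24 and 48 h.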

Experiment [4] concerns Fusarium falciforme FS1 (ATCC MYA-3636). The experiment in a line: Fungal MIC Protocol, Fusarium falciforme. As to conditions: for MIC: Fusarium falciforme, read-out: MIC Fusarium falciforme 3636. Summed up:
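MIC against Fusarium falciforme was determined by broth microdilution in RPMI/MOPS medium containing glucose. Compounds started at 200 ug/mL and were serially diluted ten times, then combined with harvested spores adjusted to an OD530 of 0.005. Controls held compound without cells and spores without compound. Plates were bagged and incubated at 35° C. for 48 hours.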

In experiment [5] the test system is Fusarium solani (ATCC 58877). The experiment in a line: Fungal MIC Protocol, Fusarium solani. As to conditions: for MIC: Fusarium solani, read-out: MIC Fusarium solani 58877. Summed up: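 Broth microdilution MIC test against Fusarium solani in RPMI/MOPS medium at pH 7.0. Compounds from DMSO stock were diluted to 200 ug/mL, then serially diluted ten times and plated in duplicate at 50 μl per well. 50 ul of spore suspension at OD530 0.005 was added. Controls had compound without cells and spores without compound. Plates were mixed gently, bagged, and incubated at 35° C. for 48 hours.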

Experiment [6] deals with Mucor circinelloides 1463(62) (ATCC 26759). In words: Fungal MIC Protocol, Mucor circinelloides (MIC-50). As to conditions: for MIC50: Mucor circinelloides, read-out: MIC-50 Mucorales circinelloides 26579. Summed up: (§1)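 MIC-type endpoint: >50% growth inhibition, judged by eye with an inverted mirror. Spores in RPMI/MOPS (pH 7.0, ~2×10^4 cfu/mL) were incubated 48 hours at 35° C with duplicate serial compound dilutions.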

In experiment [7] the test system is Mucor ramosissimus 057718 (ATCC 90286). The experiment in a line: Fungal MIC Protocol, Mucor ramosissimus (MIC-50). The settings on record: for MIC50: Mucor ramosissimus, read-out: MIC-50 Mucorales ramosissimus 90286. Summed up: as §1
The mark [8] stands for this setting: 100% growth inhibition at 48 hours.
Where [9] appears, read: GDH2346, 50% growth inhibition at 48 hours.
Where [10] appears, read: ATCC58877, 100% growth inhibition at 48 hours.
Setting [11] is: ATCC26759, 50% growth inhibition at 48 hours.
Where [12] appears, read: ATCC90286, 50% growth inhibition at 48 hours.
Setting [13] is: 50% growth inhibition at 48 hours.

≈ marks a conversion by molar mass, not a printed value. Structures can show the parent of a compound that is named as a salt. Where two headings read alike, the source gives them in different places.

With `N=C(N)N1CC=C(c2ccc(-c3nnc(-c4ccc(C5=CCN(C(=N)N)CC5)cc4)n3C3CCC3)cc2)CC1` [Example 6, 4,4′-(4,4′-(4-Cyclobutyl-4H-1,2,4-triazole-3,5-diyl)bis(4,1-phenylene))bis(5,6-dihydropyridine-1(2H)-carboximidamide)], the minimal inhibitory concentration (MIC) was 0.39 µg/mL (≈ 0.748 µM) in experiment [1] (setting [8]), 0.2 µg/mL (≈ 0.383 µM) in experiment [2] (setting [8]), under 0.1 µg/mL in experiment [4] (setting [8]) and 0.39 µg/mL (≈ 0.748 µM) in experiment [5] (setting [10]). Further, the MIC50 in experiment [3] (setting [9]) turned out to be 3.13 µg/mL (≈ 6 µM); in experiment [6] (setting [11]), 0.78 µg/mL (≈ 1.5 µM); in experiment [7] (setting [12]), 1.56 µg/mL (≈ 2.99 µM).
For `N=C(N)N1CC=C(c2ccc(-c3nnc(-c4ccc(C5=CCN(C(=N)N)CC5)cc4F)n3Cc3ccccc3)cc2)CC1` [Example 7, 4-(4-(4-Benzyl-5-(4-(1-carbamimidoyl-1,2,3,6-tetrahydropyridin-4-yl)-2-fluorophenyl)-4H-1,2,4-triazol-3-yl)phenyl)-5,6-dihydropyridine-1(2H)-carboximidamide], the MIC was 0.78 µg/mL (≈ 1.35 µM) in experiment [1] (setting [8]), under 0.1 µg/mL in experiment [2] (setting [8]), under 0.1 µg/mL in experiment [4] (setting [8]) and 0.39 µg/mL (≈ 0.677 µM) in experiment [5] (setting [10]). For the same compound, the MIC50 in experiment [3] (setting [9]) was 3.13 µg/mL (≈ 5.44 µM); in experiment [6] (setting [11]), 0.78 µg/mL (≈ 1.35 µM); in experiment [7] (setting [12]) it was 1.56 µg/mL (≈ 2.71 µM).
As for `Cl.N=C(N)N1CC=C(c2ccc(-c3nnc(-c4ccc(C5=CCN(C(=N)N)CC5)cc4)n3CCO)cc2)CC1` [Example 70, 4-(4-{5-[4-(1-carbamimidoyl-1,2,3,6-tetrahydropyridin-4-yl)phenyl]-4-(2-hydroxyethyl)-4H-1,2,4-triazol-3-yl}phenyl)-1,2,3,6-tetrahydropyridine-1-carboximidamide hydrochloride], the minimum inhibitory concentration (MIC) in experiment [1] (setting [8]) was 0.1 µg/mL; in experiment [2] (setting [8]), 0.1 µg/mL; in experiment [4] (setting [8]), 0.05 µg/mL; in experiment [5] (setting [10]), 0.05 µg/mL. Besides, the MIC50 came to 0.3 µg/mL in experiment [3] (setting [9]), 1.56 µg/mL in experiment [6] (setting [11]) and 12.5 µg/mL in experiment [7] (setting [12]).
As for `Cc1cc(C2=CCN(C(=N)N)CC2)ccc1-c1nnc(-c2ccc(C3=CCN(C(=N)N)CC3)cc2)o1` [Example 43, 4-(4-(5-(4-(1-Carbamimidoyl-1,2,3,6-tetrahydropyridin-4-yl)-2-methylphenyl)-1,3,4-oxadiazol-2-yl)phenyl)-5,6-dihydropyridine-1(2H)-carboximidamide], the minimum inhibitory concentration (MIC) in experiment [1] (setting [8]) worked out at 0.31 µg/mL (≈ 0.642 µM); in experiment [2] (setting [8]) it was 0.78 µg/mL (≈ 1.62 µM); in experiment [4] (setting [8]), 0.2 µg/mL (≈ 0.414 µM); in experiment [5] (setting [10]), 0.78 µg/mL (≈ 1.62 µM). Further, the MIC50 in experiment [3] (setting [9]) amounted to 0.39 µg/mL (≈ 0.808 µM); in experiment [6] (setting [11]), 12.5 µg/mL (≈ 25.9 µM); in experiment [7] (setting [12]), 25 µg/mL (≈ 51.8 µM).
In the case of “4,4-(4,4-(4-Cyclohexyl-4H-1,2,4-triazole-3,5-diyl)bis(4,1-phenylene))bis (5,6-dihydropyridine-1(2H)-carboximidamide) [Example 56]”, the “MIC Aspergillus flavus 3631” value in experiment [1] (setting [8]) is 0.39 µg·mL. In addition, the “MIC Aspergillus fumigatus 3626” value in experiment [2] (setting [8]) is 0.39 µg·mL. The “MIC-50 Candida albicans GDH2346” value in experiment [3] (setting [13]) turned out to be 0.78 µg/mL. Also, the “MIC Fusarium falciforme 3636” value in experiment [4] (setting [8]) was under 0.1 µg·mL. In addition, the “MIC Fusarium solani 58877” value in experiment [5] (setting [8]) was under 0.1 µg·mL. Also, the “MIC-50 Mucorales circinelloides 26579” value in experiment [6] (setting [13]) came out at 0.39 µg/mL. In experiment [7] (setting [13]), the “MIC-50 Mucorales ramosissimus 90286” value turned out to be 1.56 µg/mL.
In the case of `Cc1cc(-c2nnc(-c3ccc(C4=CCN(C(=N)N)CC4)c(C)c3)n2C)ccc1C1=CCN(C(=N)N)CC1` [Example 24, 4,4′-(4,4′-(4-Methyl-4H-1,2,4-triazole-3,5-diyl)bis(2-methyl-4,1-phenylene)) bis(5,6-dihydropyridine-1(2H)-carboximidamide)], the minimum inhibitory concentration (MIC) worked out at 1.56 µg/mL (≈ 3.06 µM) in experiment [1] (setting [8]), 0.78 µg/mL (≈ 1.53 µM) in experiment [2] (setting [8]), 0.78 µg/mL (≈ 1.53 µM) in experiment [4] (setting [8]) and 0.78 µg/mL (≈ 1.53 µM) in experiment [5] (setting [10]). The results for the MIC50 in experiment [3] (setting [9]), in experiment [6] (setting [11]) and in experiment [7] (setting [12]) were 1.56 µg/mL (≈ 3.06 µM), 6.25 µg/mL (≈ 12.3 µM) and 50 µg/mL (≈ 98.1 µM), respectively.
As to `CN1CCC(n2c(-c3ccc(C4=CCN(C(=N)N)CC4)cc3F)nnc2-c2ccc(C3=CCN(C(=N)N)CC3)cc2F)CC1` [Example 15, 4,4′-(4,4′-(4-(1-Methylpiperidin-4-yl)-4H-1,2,4-triazole-3,5-diyl)bis(3-fluoro-4,1-phenylene))bis(5,6-dihydropyridine-1(2H)-carboximidamide)], the minimal inhibitory concentration (MIC) was 3.13 µg/mL (≈ 5.21 µM) in experiment [1] (setting [8]), 3.13 µg/mL (≈ 5.21 µM) in experiment [2] (setting [8]), 0.78 µg/mL (≈ 1.3 µM) in experiment [4] (setting [8]) and under 0.1 µg/mL in experiment [5] (setting [10]). Moreover, the MIC50 in experiment [3] (setting [9]) was 25 µg/mL (≈ 41.6 µM); in experiment [6] (setting [11]) it was over 100 µg/mL; in experiment [7] (setting [12]), over 100 µg/mL.
As for `COCCn1c(-c2ccc(C3=CCC(C(=N)N)CC3)cc2F)nnc1-c1ccc(C2=CCC(C(=N)N)CC2)cc1F.O=C(O)C(F)(F)F` (centres unmarked) [Example 86, 4-(4-{5-[4-(4-carbamimidoylcyclohex-1-en-1-yl)-2-fluorophenyl]-4-(2-methoxyethyl)-4H-1,2,4-triazol-3-yl}-3-fluorophenyl)cyclohex-3-ene-1-carboximidamide trifluoroacetate], the minimum inhibitory concentration (MIC) amounted to 0.78 µg/mL in experiment [1] (setting [8]), 0.78 µg/mL in experiment [2] (setting [8]), 0.78 µg/mL in experiment [4] (setting [8]) and 0.2 µg/mL in experiment [5] (setting [10]). Also, the MIC50 in experiment [3] (setting [9]) came to 0.78 µg/mL; in experiment [6] (setting [11]) it was 1.56 µg/mL; in experiment [7] (setting [12]), 6.25 µg/mL.
With `N=C(N)N1CC=C(c2ccc(-c3nnc(-c4ccc(C5=CCN(C(=N)N)CC5)cc4F)n3C3CCN(C(=N)N)CC3)c(F)c2)CC1` [Example 12, 4,4′-(4,4′-(4-(1-Carbamimidoylpiperidin-4-yl)-4H-1,2,4-triazole-3,5-diyl)bis (3-fluoro-4,1-phenylene))bis(5,6-dihydropyridine-1(2H)-carboximidamide)], the MIC in experiment [1] (setting [8]) was 3.13 µg/mL (≈ 4.98 µM); in experiment [2] (setting [8]) it was 3.13 µg/mL (≈ 4.98 µM); in experiment [4] (setting [8]), 0.39 µg/mL (≈ 0.62 µM); in experiment [5] (setting [10]), under 0.1 µg/mL. Also, the MIC50 in experiment [3] (setting [9]) was 12.5 µg/mL (≈ 19.9 µM); in experiment [6] (setting [11]), over 100 µg/mL; in experiment [7] (setting [12]), over 100 µg/mL.
As for `Cn1c(-c2cc(F)c(C3=CCN(C(=N)N)CC3)c(F)c2)nnc1-c1ccc(C2=CCN(C(=N)N)CC2)cc1F` [Example 85, 4-(4-{5-[4-(1-carbamimidoyl-1,2,3,6-tetrahydropyridin-4-yl)-2-fluorophenyl]-4-methyl-4H-1,2,4-triazol-3-yl}-2,6-difluorophenyl)-1,2,3,6-tetrahydropyridine-1-carboximidamide trifluoroacetate], the minimum inhibitory concentration (MIC) in experiment [1] (48 h) was 0.024 µg/mL; in experiment [2] (48 h), 0.024 µg/mL; in experiment [4] (48 h) it was under 0.012 µg/mL; in experiment [5] (ATCC58877, 48 h) it was under 0.012 µg/mL. The MIC50 was found to be 0.1 µg/mL in experiment [3] (GDH2346, 48 h); 0.2 µg/mL in experiment [6] (ATCC26759, 48 h); 0.78 µg/mL in experiment [7] (ATCC90286, 48 h).
As to `Cc1cc(-c2nnc(-c3ccc(C4=CCN(C(=N)N)CC4)cc3)o2)ccc1C1=CCN(C(=N)N)CC1` [Example 42, 4-(4-(5-(4-(1-Carbamimidoyl-1,2,3,6-tetrahydropyridin-4-yl)-3-methylphenyl)-1,3,4-oxadiazol-2-yl)phenyl)-5,6-dihydropyridine-1(2H)-carboximidamide], the MIC was 6.25 µg/mL (≈ 13 µM) in experiment [1] (setting [8]), over 25 µg/mL in experiment [2] (setting [8]), 0.39 µg/mL (≈ 0.808 µM) in experiment [4] (setting [8]) and 1.56 µg/mL (≈ 3.23 µM) in experiment [5] (setting [10]). For the same compound, the MIC50 in experiment [3] (setting [9]) worked out at 0.39 µg/mL (≈ 0.808 µM); in experiment [6] (setting [11]), 25 µg/mL (≈ 51.8 µM); in experiment [7] (setting [12]) it was 25 µg/mL (≈ 51.8 µM).
